Tested on: Rat hippocampal neurons
Assay: Culture of hippocampal neurons on PLL-coated beads in media with mitotic inhibitor
Type: cell-based
Experimental: Borosilicate Glass Spheres (MO-SCI Specialty Products, Rolla, Mo.) were sterilized in an ethanol solution overnight, and dried under vacuum. Then the beads were incubated in a borate buffer solution for one hour, before being left in PLL solution overnight. Hippocampi were removed from embryonic day 18 (E18) rats and treated with trypsin for 20 min at 37° C., followed by washing and trituration. Dissociated cells were plated at 75,000 cells/cm^2 on poly-lysine-coated glass beads and cultured in neurobasal medium supplemented with 2 mM Glutamax, 2% FBS, and 2% B-27. Cells were transfected with Lipofectamine 2000 (Invitrogen) or they were infected with lenti virus after 5-15 days after dissociation and analyzed 2-14 days after infection.
Rat hippocampal neurons were selected as model mammalian brain neurons. Following dissection at a late embryonic stage (E18), or early postnatal stage (P4), the neurons were dissociated and cultured on beads coated with poly-L-lysine (PLL) to enhance cell adhesion and to support maturation.(13, 14) The neurons were grown on the beads using standard techniques developed for conventional 2D cultures (Pautot et al., 2008). […] However, a small number of supporting glial cells, which contribute to neuronal development by stimulating neuron growth and maturation, were also present. […]

SMILES: Nc1ccn([C@@H]2O[C@H](CO)[C@@H](O)[C@@H]2O)c(=O)n1 [araC]
- neuron outgrowth and branching (araC added to the culture media, no conditioned media): slowed
- growth of neurons on the beads (araC combined with conditioned media from glial feeder cell cultures, more than 3 weeks): robust growth

Source: patent US10041936B2, “Neuronal cells cultured on microparticles and methods of using same” (The Regents of the University of California, priority 2009, dated 2018)
